From PMC4166032 (Bioconjugate Chemistry, 2014)
Like-named read-outs stand apart in the source and are kept apart here.

Experiments:
[1] = test system: PXR; settings: cited from earlier work; for IC50: read-out: reported IC50, BODIPY FL vinblastine (4) as fluorescent probe
[2] = target: T1, GST-hPXR-LBD (Homo sapiens, UniProt O75469); assay: biochemical; settings: 30 min
T1 sequence (O75469 146-433 limits assumed): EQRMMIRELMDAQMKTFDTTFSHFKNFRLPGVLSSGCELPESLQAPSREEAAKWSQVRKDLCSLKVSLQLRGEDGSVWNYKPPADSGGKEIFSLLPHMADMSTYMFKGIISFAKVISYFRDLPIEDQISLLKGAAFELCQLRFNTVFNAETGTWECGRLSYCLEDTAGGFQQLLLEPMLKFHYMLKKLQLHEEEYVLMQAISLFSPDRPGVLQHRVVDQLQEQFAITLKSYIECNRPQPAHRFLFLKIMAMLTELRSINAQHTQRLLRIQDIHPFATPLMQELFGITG

[3] = target: T1, GST-hPXR-LBD
[4] = target: T1, GST-hPXR-LBD; assay: biochemical

In the case of `Clc1ccccc1C(c1ccccc1)(c1ccccc1)n1ccnc1` [clotrimazole (6), clotrimazole], the IC50 [1] is given as 1.94 µM.
In the case of `C[C@@H]1C(=O)O[C@H]2C[C@@]34[C@H]5C[C@@H](C(C)(C)C)[C@]36[C@@H](OC(=O)[C@@H]6O)O[C@@]4(C(=O)O5)[C@]21O` [ginkgolide A (8), ginkgolide A], the IC50 [1] is given as 13.7 µM, the IC50 ([2]; IC50 with 50 nM 20, 50 nM BODIPY FL vindoline (20) probe) is given as 20.7 µM and the IC50 ([2]; IC50 with 100 nM 20, 100 nM BODIPY FL vindoline (20) probe, laboratory assay buffer, 1.1% DMSO) is given as 37.7 µM.
In the case of `CC[C@]1(O)C[C@@H]2CN(CCc3c([nH]c4ccccc34)[C@@](C(=O)OC)(c3cc4c(cc3OC)N(C)[C@H]3[C@@](O)(C(=O)OC)[C@H](OC(C)=O)[C@]5(CC)C=CCN6CC[C@]43[C@@H]65)C2)C1` [vinblastine (10), vinblastine], the PXR-specific binding affinity [1] is listed as “low PXR-specific binding affinity”.
In the case of `CCC12C=CCN3CC[C@@]4(c5ccc(OC)cc5N(C)[C@H]4[C@@](O)(C(=O)OC)[C@@H]1OC(C)=O)[C@@H]32` (some centres unmarked) [vindoline (14), vindoline], the “inhibitory activity at 100 μM” value [3] is reported as 93%, the IC50 [4] is reported as 12.9 µM and the Ki [4] is reported as 11.2 µM.
